The source of these data is the METLIN SMRT retention time set (Domingo-Almenara et al. 2019).

This series is described as follows: gradient 5% acetonitrile 3 min, to 50% in 2 min, to 85% in 15 min, held 3 min, 100 µL/min. As to conditions: column: Zorbax Extend-C18 2.1 x 50 mm; eluents: water / acetonitrile, 0.1% formic acid. The gist of the method:
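Using water and acetonitrile that each contained 0.1% formic acid, mixtures of ~100 pure standards were separated at 100 μL/min on a Zorbax Extend-C18 column (2.1 × 50 mm, 1.8 μm). The HPLC fed a quadrupole time-of-flight mass spectrometer working in positive and negative ionization mode, with dead and dwell volumes of 40 μL and 900 μL. Data were acquired over 3 months. Retention time was read from computationally picked adduct peaks after manual inspection of each.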
The compound `CCN1c2cc(C(=O)NC3CCCCC3)ccc2C(=O)N2CCCCC21` (centres undefined) came in with an RP-LC retention time of 853 s.

Consider `COc1cccc(-c2ccc(NC(=O)C3=C(C(=O)O)CCC3)c(F)c2)c1`, for which the RP-LC retention time came to 1080 s.

Consider `COc1ccccc1N1CCN(C(=O)Cn2ncc3c(c2=O)N(C)C(=O)CS3)CC1`, for which the RP-LC retention time turned out to be 661 s. With `CS(=O)(=O)N1CCCc2ccc(NS(=O)(=O)CCN3C(=O)CCCC3=O)cc21`, the RP-LC retention time was found to be 622 s.

Regarding `O=C(NCc1ccc(F)cc1)Nc1cnc2c(c1)CCC2`, the RP-LC retention time amounted to 531 s. The result for `COc1ccc(-n2ncc3c(=O)n(Cc4nc(-c5ccccc5)no4)cnc32)cc1` reads 961 s.

`CCN1C(=O)COc2ccc(-c3nc(NC(C)=O)sc3C)cc21` gave an RP-LC retention time of 759 s. On to `CNC(=O)[C@H]1O[C@@H](n2cnc3c(NCc4cccc(I)c4)ncnc32)C(O)C1O` (some centres undefined), for which the RP-LC retention time was 721 s. The result for `CC(CCc1ccccc1)NC(=O)c1cc2sccc2n1Cc1ccc(F)cc1` (centres undefined) reads 1190 s. Regarding `CN(C)c1ccc(C(=O)N2CCc3cn(C)c4cccc(c34)C2)cc1`, the RP-LC retention time worked out at 671 s. As for `Cc1nc2cc(-c3noc(-c4ccc(F)c(Cl)c4)n3)ccc2o1`, the RP-LC retention time is 1270 s. Regarding `COc1ccc(CN2C=C(C(=O)OCc3cc(=O)n4ccccc4n3)C(C)=NS2(=O)=O)cc1`, the RP-LC retention time worked out at 1130 s. As to `CCOC(=O)C1CCC(CNC(=O)N2CCN(Cc3nc4ccc(Cl)cc4o3)CC2)CC1` (centres undefined), the RP-LC retention time is 697 s. On to `Cc1nc(Cn2cccc2C(=O)Nc2cc(Cl)ccc2C)no1`, for which the RP-LC retention time stood at 915 s. The result for `Cc1ccccc1-n1ccn(Cc2nc(-c3ccc(F)c(Cl)c3)no2)c(=O)c1=O` reads 942 s; that for `COc1ccc(Cl)cc1NC(=O)Cn1ncc2c(c1=O)N(CC1CC1)C(=O)CS2`, 878 s; that for `CCC(=O)Nc1ccc(S(=O)(=O)NCCOc2ccc3c(c2)OCO3)cc1`, 830 s. The result for `O=C(c1ccccc1)N1CCc2cc(-c3ccno3)ccc21` reads 886 s; that for `CCCCC(=O)Nc1ccc(-c2nc(-c3cc(C)ccc3C)co2)cc1`, 1280 s; that for `Cc1cccc(-c2noc(Cn3ncn4nc(-c5ccc(F)cc5)cc4c3=O)n2)c1`, 1150 s. In the case of `O=C(Cc1ccc(F)cc1)NCc1ccc(-c2nc(C3CC3)no2)s1`, the RP-LC retention time is 885 s. As for `CCOC(=O)c1csc(NC(=O)C2CCCN(c3ccc(-c4ccccc4)nn3)C2)n1` (centres undefined), the RP-LC retention time was determined as 659 s. Compound `CC(C)Cc1cc(-c2nn3c(-c4cccc(F)c4)nnc3s2)n[nH]1` returned an RP-LC retention time of 993 s. `CC(C)N1C(=O)C(C)(C(=O)Nc2cccc(F)c2)Oc2cccnc21` (centres undefined) yielded an RP-LC retention time of 1020 s. For `Cc1cc(C(=O)Nc2nc3c(F)cccc3s2)no1` the value was 780 s. For `CN(C(=O)Cn1c(CCO)nc2ccccc21)c1ccccc1` the value was 554 s; for `CCc1nccn1Cc1noc(-c2ccc(Cl)cc2)n1`, 668 s; for `Cc1ccc(Cn2c(=O)c(N3CCCC(C(=O)NCCc4ccco4)C3)nc3ccccc32)cc1` (centres undefined), 1090 s.

Regarding `O=C(NCC1(c2cccs2)CCOCC1)c1nc2ccccc2s1`, the RP-LC retention time amounted to 596 s.

The compound `COc1ccccc1NS(=O)(=O)c1cc(N)ccc1N1CCCCC1` displayed an RP-LC retention time of 744 s. Compound `COc1cccc(C2Cn3nnc(-c4nc(-c5ccc(Cl)cc5)no4)c3CO2)c1` (centres undefined) returned an RP-LC retention time of 1220 s. The result for `CCn1cc(C(=O)NCCc2cccs2)c(=O)c2cc(OC)ccc21` reads 780 s; that for `Cc1cccc(OCc2nc(-c3ccc(-c4csc(C)n4)cc3)no2)c1`, 1250 s. For `COc1ccc(-c2noc(C3CCCN3C(=O)C3CC3)n2)cc1` (centres undefined) the value was 816 s; for `Cc1cc(-c2ccc(C)c(S(=O)(=O)Nc3ccc(Cl)cc3)c2)n[nH]1`, 898 s. The result for `Cc1ccc(S(=O)(=O)N2C[C@@H]3C[C@H]2C[C@@H]3NC(=O)c2cccs2)cc1Cl` reads 992 s; that for `CCCc1ccc(S(=O)(=O)N2CCCC2c2nc(-c3cccc(F)c3)no2)cc1` (centres undefined), 1270 s; that for `Cc1ccnc(SCC(=O)Nc2nc(-c3ccccc3)c(-c3ccccc3)o2)n1`, 959 s. In the case of `CC(C)c1ccc(CNC(=O)CN2CCN(Cc3ccc(F)cc3)C2=O)cc1`, the RP-LC retention time was determined as 933 s.

Regarding `NS(=O)(=O)c1ccc(NC(=O)C2CCCN(c3ncnc4c3nc3n4CCCCC3)C2)cc1` (centres undefined), the RP-LC retention time is 659 s. For `O=C(Nc1ccccc1C(F)(F)F)c1csc(-c2ccc(N3CCCC3)nc2)n1` the value was 890 s; for `COc1ccc(-c2ncccc2CNS(=O)(=O)Cc2ccccc2F)cc1`, 660 s; for `COc1cccc(Cn2c(=O)c3cnc(-c4ccncc4)nc3n(C)c2=O)c1`, 805 s. Compound `CCOC(=O)C1CCN(C(=O)c2cc3sc(C)cc3n2C)CC1` came in with an RP-LC retention time of 951 s.

`COc1ccc(-n2ccc(=O)c(-c3nc(-c4cccc(Br)c4)no3)n2)cc1` registered an RP-LC retention time of 985 s. Turning to `COCCCNC(=O)Cn1nc2cc(C)nc(-c3ccc(C(F)(F)F)cc3)n2c1=O`, the RP-LC retention time is 765 s. For `COc1ccc(N2CC(c3nc(-c4ccc5c(c4)OCO5)no3)CC2=O)cc1Cl` (centres undefined) the value was 966 s; for `CCOC(=O)C1=C(CN2CCN(c3ncccn3)CC2)NC(=O)NC1c1ccc(Cl)cc1` (centres undefined), 669 s; for `Cc1cc(C)c2c(N3CCOCC3)nc(C(=O)N3CCN(C4CCCCC4)CC3)nc2n1`, 574 s. On to `COCCC1CCN(C(=O)c2nn(C)c3ccccc23)CC1`, for which the RP-LC retention time turned out to be 771 s. As for `CCCn1cc(S(=O)(=O)Nc2cccc(C)c2C)c2cccnc21`, the RP-LC retention time was determined as 943 s. For `O=C(CSc1ccc(-c2ccco2)nn1)Nc1ccc(F)cc1F` the value was 788 s; for `CCc1nn2c(CNC(=O)c3ccoc3)c(-c3ccccc3)nc2s1`, 808 s; for `COc1ccc(-c2c(C)noc2NC(C)=O)cc1S(=O)(=O)Nc1ccc(Cl)cc1`, 766 s.

For the compound `Cc1ccc(CNC(=O)C2CCCN(c3nc4c(s3)c(C)nn4-c3ccc(Cl)cc3)C2)cc1` (centres undefined), the RP-LC retention time worked out at 1290 s. For `CC(C)(C)C1CCc2c(sc3nc(CCC(=O)N4CCC(C(N)=O)CC4)[nH]c(=O)c23)C1` (centres undefined) the value was 779 s; for `Cc1cc(-c2ccc(C(C)C)c(S(=O)(=O)N3CCN(c4ccccn4)CC3)c2)on1`, 819 s.

The compound `CNS(=O)(=O)c1ccc(Cl)c(-c2nnc(-c3ccc(OC)cc3)o2)c1` came in with an RP-LC retention time of 883 s. `CC1=C(c2ccc(Cl)cc2)S(=O)(=O)N=C1N1CCCN(C(=O)Cn2ccnc2)CC1`: the RP-LC retention time was 633 s. The result for `CCOc1ccc(C(=O)N2CCc3nc[nH]c3C2)cc1` reads 565 s.

As to `O=C(Nc1cc(F)ccc1F)N1CCc2nc(-c3ccc(F)cc3)ncc2C1`, the RP-LC retention time amounted to 985 s. For the compound `Fc1cccc(-n2cc(-c3noc(-c4ccccc4)n3)nn2)c1`, the RP-LC retention time came to 1070 s. Turning to `CCCCN1C(=O)C(CC(=O)NC2CCCC2)Sc2ncccc21` (centres undefined), the RP-LC retention time was determined as 808 s.

Consider `COc1ccc(Cl)cc1NC(=O)C1CC(=O)N(c2ccc3c(c2)CCN3C(C)=O)C1` (centres undefined), for which the RP-LC retention time was determined as 774 s.

`O=C(NCc1ccco1)c1ccc2ccnc(N3CCN(c4ccc(Cl)cc4)CC3)c2c1`: the RP-LC retention time was 858 s. `CC1=C(c2ccc(C)cc2)S(=O)(=O)N=C1N1CCC(NC(=O)c2ccoc2)CC1` gave an RP-LC retention time of 805 s.

In turn, `COc1ccc2c3c([nH]c2c1)[C@H](CC(C)C)N1C(=O)[C@H](CCC(=O)OC(C)(C)C)NC(=O)[C@@H]1C3` registered an RP-LC retention time of 1100 s. As to `Cc1ccc(S(=O)(=O)N2CCCN(C)c3ccccc32)cc1C`, the RP-LC retention time came to 603 s.

Take `Cn1cc(S(=O)(=O)N2CCC(C(=O)NCc3ccccc3)CC2)cc1C(=O)N1CCCC1`: the RP-LC retention time turned out to be 1040 s. The result for `COc1ccc(CNC(=O)c2ccc3c(c2)NC(=O)C2CCCCN32)cc1OC` (centres undefined) reads 719 s; that for `CCn1nccc1-c1nc(C2CC(=O)N(c3ccc(C)cc3)C2)no1` (centres undefined), 680 s; that for `COc1cc(Nc2nc(-c3nnn(-c4ccc(Br)cc4F)c3C)ns2)cc(OC)c1`, 1120 s. In turn, `O=C(c1n[nH]c2ccccc12)N1CCCn2nc(-c3cccs3)cc2C1` came in with an RP-LC retention time of 791 s. The result for `CC(C)c1ccc(NC(=O)C2CCN(S(C)(=O)=O)c3cc(Cl)ccc3O2)cc1` (centres undefined) reads 1110 s; that for `CCCn1cc(C(=O)NCCCOCC)c(S(=O)(=O)N2CCN(c3ccccc3Cl)CC2)n1`, 1090 s; that for `CN(C)C(CNC(=O)c1cc(-c2ccccc2)on1)c1ccco1` (centres undefined), 653 s. For the compound `Cc1ccccc1-c1nc(C2CCN(S(=O)(=O)c3ccc(C(C)C)cc3)CC2)no1`, the RP-LC retention time came out at 1340 s. For `COCC(=O)NC1CCC12CCN(C(=O)NC(C)C)CC2` (centres undefined) the value was 630 s. The result for `COc1cccc(S(=O)(=O)N2CCC3(CC2)CC(OCC2CC2)CCO3)c1` (centres undefined) reads 1010 s.
